Assay results from paper PMC6013238, “Development of novel NEMO-binding domain mimetics for inhibiting IKK/NF-κB activation” (PLoS Biology, 2018).
Where “and” joins values, the source holds several entries; their conditions need not be identical. Equal entries are not always repeated.

System: mdx mice
Assay: Chronic treatment of mdx mice, qRT-PCR of eMyHC and Pax7 in TA muscle
Format: in vivo, mouse
Settings: Fig 7D, SR 30 mg/kg, 8K-NBD 10 mg/kg, 4 wk, single mice
Description: Fig 7 NBD mimetics improve muscular pathology and grip strength in mdx mice. (A) Shown is the treatment regimen with NBD mimetics in mdx mice. (B) Hematoxylin–eosin staining of TA muscle from 7-wk-old, treated or untreated mdx mice. Images were taken at magnification of 20×. Representative images were shown for each treatment group. […] (E) TA muscle from 7-wk-old, treated or untreated mdx mice was stained with laminin by IHC to outline myofibers. Overall images of TA muscle were shown on the left side, and the inset panel images were shown on the right side. (F) Quantitation of minimum Feret diameter in centrally and noncentrally nucleated myofibers. (G) Forelimb force determined by grip strength test. […] Underlying data can be found in S1 Data. eMyHC, embryonic myosin heavy chain; IHC, immunohistochemistry; NBD, NEMO-binding domain; NEMO, NF-κB essential modulator; Pax7, paired box protein 7; qRT-PCR, quantitative real-time polymerase chain reaction; TA, tibialis anterior.
To determine whether SR12343 and SR12460 improve muscle pathology, TA muscle was stained with hematoxylin–eosin to assess inflammatory infiltration, necrosis, central nucleation, and fibrosis. […] To further quantitate the extent of inflammation in mdx muscle tissues, diaphragm and TA muscle were immunostained for cluster of differentiation 68 (CD68), a macrophage marker. […]

O=C(CNc1ccc(Cl)cn1)NCCc1cccc(Br)c1 [SR12343]
Pax7 mRNA in TA muscle (qRT-PCR): 1.512 and 1.485 and 1.5466 and 1.253 and 1.1889 and 1.394
